# Where two headings read alike, the source gives them in different places.
# Columns and labels:
# [1] = system: tumor; conditions: mouse, in vivo
# Protocol: (§1) Cancer treatment efficacy of the pH-sensitive micelles was evaluated by comparing the therapeutic windows of small molecule drugs (doxorubicin) and the doxorubicin-conjugated micelles.
# (§2) The CDF1 mice (female, n=6), when the tumor volume reached about 100 mm^3, were injected with DOX or the micelles in a volume of 0.1 mL/10 g body weight for the experiments. The dose was either 10 mg/kg for DOX or the micelles (DOX equivalent).
# (§3) Cancer treatment efficacy of the pH-sensitive micelles was evaluated by comparing the therapeutic windows of small molecule drugs (doxorubicin) and the doxorubicin-conjugated micelles. Therapeutic windows were determined based on the ratio of ED50 to TD.
# [2] = system: tumor; experiment: Cancer treatment efficacy and toxicity in tumor-bearing mice (Table 2, therapeutic window); conditions: for Complete Cure / Toxic Death: mice; for Complete Cure: cured/animals; for Toxic Death: deaths/animals
# Protocol: as §1, §2, §3
# [3] = DMEM with 10% fetal bovine serum, 24 hours, 100 μg mL−1 ADR equivalent, excitation 485 nm
# [4] = Biodistribution and plasma levels in tumor-bearing mice; conditions: after 10 hours; 10 mg/kg, CDF1 mice
# Protocol: as §2
# [5] = system: human small cell lung cancer SBC-3 cells; experiment: Confocal laser scanning microscopy of intracellular localization; format: cell-based; conditions: 10 μg mL−1
# Protocol: FIG. 4 illustrates CLSM images of human small cell lung cancer SBC-3 cells incubated with ADR and PEG-p(Asp-Hyd-ADR) micelles (10 μg mL^−1). […] A series of optical sections was stacked (Z-stacked) by moving the focal plane of the instrument step-by-step through the depth of the cell.
# [6] = system: human small cell lung cancer SBC-3 cells; conditions: different ADR concentrations and exposure times
# Text: As a system releasing bioactive molecules, the micelles are required to maintain the ability of the loaded ADR to suppresses cell growth by binding with DNA strands in the cell nucleus.
Compound,Weight change on day 30 (%) ([1]; 5 mg/kg),Weight change on day 30 (%) ([1]; 10 mg/kg),Complete Cure ([2]; dose 5 mg/kg),Toxic Death ([2]; dose 5 mg/kg),Complete Cure ([2]; dose 10 mg/kg),Toxic Death ([2]; dose 10 mg/kg),fluorescence intensity at 590 nm [3],dose remained in the blood [4],fluorescence intensity in cells ([5]; after 1 hour exposure),intracellular localization of fluorescence ([5]; after 24 hours incubation),"therapeutic window compared to standard doxorubicin administration ([2]; based on treatment-to-control (T/C) ratio, ratio of ED50 to TD)",Complete Cure ([2]; dose 20 mg/kg),Complete Cure ([2]; dose 40 mg/kg),growth-inhibition effect [6],fluorescence intensity in cells ([5]; after 24 hours incubation)
"COc1cccc2c1C(=O)c1c(O)c3c(c(O)c1C2=O)C[C@@](O)(C(=O)CO)C[C@@H]3O[C@H]1C[C@H](N)[C@H](O)[C@H](C)O1 [DOX, doxorubicin]",−13.35 ± 0.59,−16.84 ± 1.26,0/6,0/6,1/6,0/6,intense fluorescence,almost none,increase in fluorescence intensity,only accumulated in cell nuclei,–,–,–,–,–
poly(ethylene glycol)poly(aspartate-hydrazone-adriamycin) [DOX-Micelle],–,–,0/6,–,0/6,–,–,–,no such increase was detected,dot-shaped within the cytoplasm,broader therapeutic window,2/6,3/6,gradually approach those of free ADR,considerable fluorescence change
